Test in all cases: growth of human tumour cells (NCI), 48 h
For experiment [1], the system named is DU-145 prostate.
Experiment [2] concerns NCI-H522 lung.
For experiment [3], the system named is HCT-116 colon.
The test system of experiment [4] is LOX IMVI melanoma.
Experiment [5] relates to UO-31 renal.
For experiment [6], the system named is OVCAR-5 ovarian.
In experiment [7] the test system is OVCAR-4 ovarian.
For experiment [8], the system named is MDA-N.
Experiment [9] has as its system SK-MEL-2 melanoma.
Experiment [10] has as its system 786-0 renal.
Experiment [11] concerns SK-MEL-28 melanoma.
The test system of experiment [12] is KM12 colon.
Experiment [13] has as its system SR leukemia.
Experiment [14] concerns NCI-H460 lung.
Experiment [15] concerns OVCAR-8 ovarian.
For experiment [16], the system named is M14 melanoma.
The subject of experiment [17] is TK-10 renal.
The test system of experiment [18] is SW-620 colon.
For experiment [19], the system named is RXF 393 renal.
Experiment [20] has as its system A498 renal.

Among the data in PubChem BioAssay (NCI) are TGI values, retold here.

Each structure is given as a SMILES string.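 Grown in 96-well plates, cells were treated for 48 hours with each compound at five concentrations. Insufficient inhibition: endpoint recorded as highest concentration tested. The concentration for full growth arrest is given as TGI.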

In the case of `Cc1cccc(/C=C2\CCCc3ccccc3C2=O)c1`, the TGI in [1] is greater than 100 µM; in experiment [2], 33.1 µM; in experiment [3], 31.2 µM; in [4], 37 µM; in [5], greater than 100 µM; in experiment [6], 31.6 µM. The TGI in [7] was 47.7 µM; in experiment [8], 55 µM; in experiment [9], 30.8 µM; in [10], greater than 100 µM; in experiment [11], 59 µM; in experiment [12] it was 26.1 µM. For the same compound, the TGI was 40.3 µM in [13]; 36.5 µM in experiment [14]; 78.3 µM in experiment [15]; 34.6 µM in [16]; greater than 100 µM in experiment [17]; 30.7 µM in experiment [18].
As to `N#Cc1nc(COCc2ccccc2)oc1N`, the TGI in experiment [1], in [2], in experiment [3], in experiment [19], in experiment [4] and in experiment [5] was greater than 100 µM throughout. The TGI in [6], in [7], in experiment [8], in experiment [9], in experiment [10] and in experiment [11] was greater than 100 µM throughout. Further, the TGI in experiment [12], in [13], in [15], in [16], in [17] and in [18] was greater than 100 µM throughout.
Take `CC(=O)Nc1ccc(CNc2cc(=O)n(C)c(=O)[nH]2)cc1`: the TGI in experiment [1], in experiment [2], in [3], in experiment [19], in [4] and in experiment [5] was greater than 100 µM throughout. Further, the TGI in experiment [6], in [7], in experiment [8], in experiment [9], in experiment [10] and in [11] was greater than 100 µM in each case. For the same compound, the TGI in experiment [12], in experiment [13], in experiment [14], in experiment [15], in [16] and in [17] was greater than 100 µM in each case. In [18], this compound returned a TGI greater than 100 µM.
In the case of `CCOC(=O)C(NCc1ccc2c(c1)OCO2)(NC(=O)c1ccccc1)C(F)(F)F` (stereo not given), the TGI in experiment [1], in experiment [2], in experiment [3], in experiment [19], in experiment [4] and in experiment [5] was greater than 100 µM each time. Also, the TGI in experiment [6], in experiment [7], in experiment [8], in experiment [9], in experiment [10] and in experiment [11] was greater than 100 µM in each case. The TGI in experiment [12], in experiment [13], in [15], in experiment [16], in experiment [17] and in experiment [18] was greater than 100 µM throughout.
On to `CCn1c(-c2ccc(F)cc2)nc2c1C(=O)c1ccccc1C2=O`, for which the TGI in experiment [1], in experiment [2], in [3], in experiment [19], in [6] and in experiment [7] was greater than 100 µM throughout. Further, the TGI in experiment [8], in experiment [10], in experiment [11], in experiment [12], in experiment [13] and in experiment [14] was greater than 100 µM in each case. Also, the TGI in experiment [15], in [16], in experiment [17] and in experiment [18] was greater than 100 µM throughout.
Consider `O=C(O)[C@@H]1CCC(=O)N1C(c1ccc2c(c1)OCO2)c1ccc2c(c1)OCO2`, for which the TGI in experiment [20], in experiment [1], in experiment [2], in [3], in [4] and in experiment [5] was greater than 100 µM each time. Further, the TGI in experiment [6], in [7], in experiment [8], in experiment [9], in [10] and in experiment [11] was greater than 100 µM in each case. Further, the TGI in [12], in experiment [13], in [14], in [15], in experiment [16] and in experiment [17] was greater than 100 µM each time. Moreover, the TGI in experiment [18] is greater than 100 µM.
For `CCC(=O)N1NC(=O)C(CC)(CC)C1=O`, the TGI in [1], in experiment [2], in experiment [3], in experiment [19], in [4] and in [5] was greater than 100 µM throughout. Further, the TGI in experiment [6], in experiment [7], in [8], in experiment [9], in experiment [10] and in experiment [11] was greater than 100 µM in each case. Besides, the TGI in experiment [12], in experiment [13], in experiment [14], in [15], in experiment [16] and in experiment [17] was greater than 100 µM in each case. The same compound gave a TGI in experiment [18] greater than 100 µM.
For the compound `COc1cc(/C=C/C(=O)OCCc2ccccc2)ccc1O`, the TGI in experiment [1] was 30.4 µM; in experiment [2], 22.1 µM; in [3] it was 31.6 µM; in experiment [4], 36.1 µM; in [5], 27.3 µM; in experiment [6], 32.8 µM. Moreover, the TGI amounted to 26.1 µM in experiment [7]; 34.4 µM in experiment [8]; 42.7 µM in experiment [9]; 30.4 µM in [10]; 26.9 µM in [11]; 30.3 µM in [12]. Further, the TGI in experiment [13] worked out at 83.5 µM; in experiment [14], 37.1 µM; in experiment [15] it was 79.3 µM; in experiment [16], 29 µM; in experiment [17], 28.3 µM; in [18], 41.2 µM.
